Test results: patent US20260315434A1, “USE OF GUAIACOL SESQUITERPENE LACTONE DERIVATIVES” (NANJING UNIVERSITY OF CHINESE MEDICINE, priority 2023, published 2026)

Experiments:
[1] = Water solubility testing of compounds (HPLC); settings: deionized water, 37 °C
[2] = Conversion (release) of prodrug salts to parent compound in mouse plasma; assay type: in vitro ADME; settings: mouse, plasma, 37 °C, read-out: Release rate (conversion to Compound 1)
Protocol: (§1) Pharmaceutically acceptable salts of guaiane-type sesquiterpene lactone derivatives were selected and evaluated for their conversion rates to Compound 1 and Compound 83 in plasma and HEPES buffer, with results shown in Tables 2-1, 2-2, 3-1, and 3-2.
Plasma Preparation: Collect mouse plasma into an EP tube pre-loaded with sodium heparin, centrifuge at 8000 rpm for 10 minutes at 4° C., and then collect the supernatant.
(§2) Sample Analysis: Dissolve 0.6 mg of the compound in 250 μL of deionized water separately. Add 250 μL of mouse serum or HEPES 7.4 solution to the sample, incubate at a constant temperature of 37° C., and collect samples at different time points. Pipette 20 μL of the sample to an EP tube, add 60 μL of methanol, vortex to mix thoroughly, and centrifuge at 12,000 rpm at 4° C. for 10 min. At 1 h, 2 h, 4 h, 8 h, and 12 h respectively, collect the supernatant for HPLC analysis. Inject 10 μL of sample and record the corresponding peak areas. Chromatographic conditions: Hanbang C18 column (4.6×250 mm, 5 μm); mobile phase: acetonitrile: […] ammonium formate solution=60:40; flow rate 1.0 mL/min; detection wavelength 210 nm; column temperature 30° C.

[3] = Conversion (release) of prodrug salts to parent compound in HEPES buffer pH 7.4; assay type: in vitro ADME; settings: hepes buffer, pH 7.4, HEPES pH 7.4, 37 °C, read-out: Release rate (conversion to Compound 1)
Protocol: as §1
Experimental Method: Preparation of HEPES 7.4 Solution: Dissolve 1.6 g NaCl, 0.074 g KCl, 0.027 g Na2HPO4, 0.2 g glucose, and 1 g 4-(2-Hydroxyethyl)piperazine-1-ethanesulfonic acid (HEPES) solution in 90 mL distilled water. Adjust the pH to 7.4 using 0.5 M NaOH, then dilute to a final volume 100 mL with distilled water.
as §2

T cells / MDSCs = assay: Promotion of T cell proliferation in a co-culture model of MDSCs and T cells; assay type: cell-based, mouse; settings: for activation at 1 µM: Mus musculus, T-cell, 12 h, read-out: T-cell proliferation rate (%), 1 μM, MDSCs treated 12 hours, co-culture of MDSCs and T cells, compared to the control group
Protocol: Under sterile conditions, the tibia was removed, both ends of the bone were cut, and bone marrow was repeatedly flushed into a 15 mL centrifuge tube using a 1 mL syringe filled with culture medium. Centrifuge at 1600 rpm for 5 min to collect bone marrow cells. […] The spleen cell suspension was then transferred into a 15 mL centrifuge tube. Centrifuge at 1600 rpm for 5 min to collect T cells. Wash twice with 1×PBS. Resuspend the centrifuged T cells in 1 mL PBS and add 1 mL of 10 μM CFDA-SE solution. Incubate at room temperature for 8 min. […] After drug administration, collect MDSC cells into centrifuge tubes. Centrifuge at 1600 rpm for 5 min, remove supernatant, resuspend in 1 mL fresh medium, and plate. Add 1 mL stimulated activated T cells (1:1 ratio) for 48 h co-culture. After incubation, collect cells into centrifuge tubes, wash twice with PBS, and incubate with Fc antibody at room temperature in the dark for 10 min. Add CD3-labeled flow cytometry antibody and incubate at 4° C. in the dark for 30 min. After incubation, wash cells with PBS, resuspend in 300 μL PBS, and analyze by flow cytometry.

C[C@@]12CC[C@@H]3[C@H](OC(=O)[C@H]3CN3CCC3)[C@@H]3[C@]1(CC[C@@]3(C)O)C2 [Compound 14]
Water-solubility [1]: 0.460 mg/mL

C[C@@]12CC[C@@H]3[C@H](OC(=O)[C@H]3CN3CCC3)[C@@H]3[C@]1(CC[C@@]3(C)O)C2 [Compound 33]
Water-solubility [1]: 145.5 mg/mL
metabolised at 1 h [2]: 6.9%
metabolised at 2 h [2]: 14.8%
metabolised at 4 h [2]: 26%
metabolised at 8 h [2]: 42.8%
metabolised at 12 h [2]: 50.7%
degraded at 1 h [3]: 6.9%
degraded at 2 h [3]: 15.8%
degraded at 4 h [3]: 26%
degraded at 8 h [3]: 41.8%
degraded at 12 h [3]: 51.1%

C[C@@]12CC[C@@H]3[C@H](OC(=O)[C@H]3CN3CCC4(CCCC4)CC3)[C@@H]3[C@]1(CC[C@@]3(C)O)C2 [Compound 34]
Water-solubility [1]: 128.6 mg/mL
metabolised at 1 h [2]: 7.8%
metabolised at 2 h [2]: 17.2%
metabolised at 4 h [2]: 28.6%
metabolised at 8 h [2]: 47.6%
metabolised at 12 h [2]: 58.8%
degraded at 1 h [3]: 7%
degraded at 2 h [3]: 16.2%
degraded at 4 h [3]: 27.6%
degraded at 8 h [3]: 43.6%
degraded at 12 h [3]: 54.4%

CCCN(CCC)C[C@@H]1C(=O)O[C@H]2[C@H]1CC[C@@]1(C)C[C@]13CC[C@@](C)(O)[C@H]23 [Compound 29]
Water-solubility [1]: 289.5 mg/mL
metabolised at 1 h [2]: 6.8%
metabolised at 2 h [2]: 14.2%
metabolised at 4 h [2]: 24.6%
metabolised at 8 h [2]: 40.2%
metabolised at 12 h [2]: 49%
degraded at 1 h [3]: 6.8%
degraded at 2 h [3]: 14.2%
degraded at 4 h [3]: 24.6%
degraded at 8 h [3]: 40.2%
degraded at 12 h [3]: 49.8%

C[C@@]12CC[C@@H]3[C@H](OC(=O)[C@H]3CN3CC4CCCC4C3)[C@@H]3[C@]1(CC[C@@]3(C)O)C2 (some centres unmarked) [Compound 32]
Water-solubility [1]: 100.8 mg/mL
metabolised at 1 h [2]: 6.3%
metabolised at 2 h [2]: 14.4%
metabolised at 4 h [2]: 25.2%
metabolised at 8 h [2]: 43.2%
metabolised at 12 h [2]: 51.4%
degraded at 1 h [3]: 6.9%
degraded at 2 h [3]: 15.4%
degraded at 4 h [3]: 26.2%
degraded at 8 h [3]: 42.2%
degraded at 12 h [3]: 51.2%

C[C@@]12CC[C@@H]3[C@H](OC(=O)[C@H]3CN3CCCCC3)[C@@H]3[C@]1(CC[C@@]3(C)O)C2 [Compound 24]
Water-solubility [1]: 300.5 mg/mL
metabolised at 1 h [2]: 7.7%
metabolised at 2 h [2]: 17.1%
metabolised at 4 h [2]: 27.7%
metabolised at 8 h [2]: 47.8%
metabolised at 12 h [2]: 57.9%
degraded at 1 h [3]: 6.8%
degraded at 2 h [3]: 15.1%
degraded at 4 h [3]: 26.7%
degraded at 8 h [3]: 42.8%
degraded at 12 h [3]: 54%

C[C@@]12CC[C@@H]3[C@H](OC(=O)[C@H]3CN3CCCCCCC3)[C@@H]3[C@]1(CC[C@@]3(C)O)C2 [Compound 38]
Water-solubility [1]: 250.9 mg/mL
metabolised at 1 h [2]: 6.1%
metabolised at 2 h [2]: 14.5%
metabolised at 4 h [2]: 25.4%
metabolised at 8 h [2]: 41.4%
metabolised at 12 h [2]: 49.7%
degraded at 1 h [3]: 6.9%
degraded at 2 h [3]: 14.8%
degraded at 4 h [3]: 25.4%
degraded at 8 h [3]: 41.4%
degraded at 12 h [3]: 50.7%

C[C@@]12CC[C@@H]3[C@H](OC(=O)[C@H]3CN3CCC(N4CCCCC4)CC3)[C@@H]3[C@]1(CC[C@@]3(C)O)C2 [Compound 16]
Water-solubility [1]: 0.285 mg/mL

C=C1C(=O)O[C@H]2[C@H]1CCC(C)=C1CC[C@@](C)(OC(=O)N3CCC(N4CCOCC4)CC3)[C@@H]12 [Compound 94]
activation at 1 µM (T cells / MDSCs): 20 to 40%

CCCCN(CCCC)C[C@@H]1C(=O)O[C@H]2[C@H]1CC[C@@]1(C)C[C@]13CC[C@@](C)(O)[C@H]23 [Compound 30]
Water-solubility [1]: 228.4 mg/mL
metabolised at 1 h [2]: 6.6%
metabolised at 2 h [2]: 13.6%
metabolised at 4 h [2]: 23.8%
metabolised at 8 h [2]: 40.8%
metabolised at 12 h [2]: 48.8%
degraded at 1 h [3]: 6.6%
degraded at 2 h [3]: 14.6%
degraded at 4 h [3]: 23.8%
degraded at 8 h [3]: 40.8%
degraded at 12 h [3]: 49.8%

C=C1C(=O)O[C@H]2[C@H]1CCC(C)=C1CC[C@@](C)(OC(=O)N3CCN(C)CC3)[C@@H]12 [Compound 85]
activation at 1 µM (T cells / MDSCs): 0 to 20%

C=C1C(=O)O[C@H]2[C@H]1CCC(C)=C1CC[C@@](C)(OC(=O)NC3CC3)[C@@H]12 [Compound 70]
activation at 1 µM (T cells / MDSCs): 0 to 20%

C=C1C(=O)O[C@H]2[C@H]1CCC(C)=C1CC[C@@](C)(OC(=O)NC(CC)CC)[C@@H]12 [Compound 69]
activation at 1 µM (T cells / MDSCs): 20 to 40%

CN(C)C[C@@H]1C(=O)O[C@H]2[C@H]1CC[C@@]1(C)C[C@]13C[C@@H](O)[C@@](C)(O)[C@H]23 [Compound 60]
activation at 1 µM (T cells / MDSCs): 0 to 20%

C=C1C(=O)O[C@H]2[C@H]1CCC(C)=C1CC[C@@](C)(OC(=O)NCCN(C)C)[C@@H]12 [Compound 77]
activation at 1 µM (T cells / MDSCs): 0 to 20%

C[C@@]12CC[C@@H]3[C@H](OC(=O)[C@H]3CN3CCC4(CC3)CC4)[C@@H]3[C@]1(CC[C@@]3(C)O)C2 [Compound 37]
Water-solubility [1]: 357.5 mg/mL
metabolised at 1 h [2]: 8.2%
metabolised at 2 h [2]: 17.8%
metabolised at 4 h [2]: 29.3%
metabolised at 8 h [2]: 48.1%
metabolised at 12 h [2]: 67.8%
degraded at 1 h [3]: 7.2%
degraded at 2 h [3]: 16.8%
degraded at 4 h [3]: 28.3%
degraded at 8 h [3]: 44.1%
degraded at 12 h [3]: 65.8%

C=C1C(=O)O[C@H]2[C@H]1CCC(C)=C1CC[C@@](C)(OC(=O)NCC(C)C)[C@@H]12 [Compound 88]
activation at 1 µM (T cells / MDSCs): 20 to 40%

C=C1C(=O)O[C@H]2[C@H]1CCC(C)=C1CC[C@@](C)(OC(=O)NCCCN3CCN(C)CC3)[C@@H]12 [Compound 93]
activation at 1 µM (T cells / MDSCs): 20 to 40%

CC(C)N(C[C@@H]1C(=O)O[C@H]2[C@H]1CC[C@@]1(C)C[C@]13CC[C@@](C)(O)[C@H]23)C(C)C [Compound 12]
Water-solubility [1]: 0.802 mg/mL

C=C1C(=O)O[C@H]2[C@H]1CCC(C)=C1CC[C@@](C)(OC(=O)NCC(F)F)[C@@H]12 [Compound 89]
activation at 1 µM (T cells / MDSCs): 20 to 40%

C=C1C(=O)O[C@H]2[C@H]1CCC(C)=C1CC[C@@](C)(OC(=O)N(C)C)[C@@H]12 [Compound 80]
activation at 1 µM (T cells / MDSCs): 20 to 40%

C=C1C(=O)O[C@H]2[C@H]1CCC(C)=C1CC[C@@](C)(OC(=O)N3CCC(C)CC3)[C@@H]12 [Compound 84]
activation at 1 µM (T cells / MDSCs): 20 to 40%

C=C1C(=O)O[C@H]2[C@H]1CCC(C)=C1CC[C@@](C)(OC(=O)N(CC)CCC)[C@@H]12 [Compound 91]
activation at 1 µM (T cells / MDSCs): 20 to 40%

CC1=C2CC[C@@](C)(OC(=O)N3CCCCC3)[C@@H]2[C@H]2OC(=O)[C@@H](CN3CCCC3)[C@@H]2CC1 [Compound 96]
activation at 1 µM (T cells / MDSCs): 0 to 20%

C=C1C(=O)O[C@H]2[C@H]1CCC(C)=C1CC[C@@](C)(OC(=O)NC(C)C)[C@@H]12 [Compound 68]
activation at 1 µM (T cells / MDSCs): 0 to 20%

C=C1C(=O)O[C@H]2[C@H]1CCC(C)=C1CC[C@@](C)(OC(=O)NCCCN3CCOCC3)[C@@H]12 [Compound 92]
activation at 1 µM (T cells / MDSCs): 20 to 40%

C=C1C(=O)O[C@H]2[C@H]1CCC(C)=C1CC[C@@](C)(OC(=O)NCc3ccccc3)[C@@H]12 [Compound 79]
activation at 1 µM (T cells / MDSCs): 20 to 40%

CC1=C2CC[C@@](C)(OC(=O)N3CCCC3)[C@@H]2[C@H]2OC(=O)C(CN3CCCC3)[C@@H]2CC1 (some centres unmarked) [compound 104]
T-cell proliferation rate (%) (T cells / MDSCs; 1 μM, MDSCs treated 12 hours, co-culture of MDSCs and T cells, compared to the control group): + (T-cell proliferation rate within the 0-20% range compared to the control group)

C=C1C(=O)O[C@H]2[C@H]1CCC(C)=C1CC[C@@](C)(OC(=O)NCCCCCO)[C@@H]12 [Compound 73]
activation at 1 µM (T cells / MDSCs): 20 to 40%

C[C@@]12CC[C@@H]3[C@H](OC(=O)[C@H]3CN3CCC(N4CCOCC4)CC3)[C@@H]3[C@]1(CC[C@@]3(C)O)C2 [Compound 17]
Water-solubility [1]: 0.942 mg/mL
